Source: PMC12096669, “Structural isomerisation affects the antitubercular activity of adamantyl-isoxyl adducts” (Journal of Enzyme Inhibition and Medicinal Chemistry, 2025)
Values after ≈ are worked out from the molar mass of the structure shown. Like-named read-outs stand apart in the source and are kept apart here.

Key:
Mtb mc^27902 pMV261 [1] = assay type: cell-based, Mycobacterium tuberculosis
A. baumannii NCTC 12156 = assay: Non-mycobacterial REMA assay; assay type: cell-based; conditions: Acinetobacter baumannii, NCTC12156, read-out: Minimum inhibitory concentration 95%
E. cloacae NCTC 10005 = assay: Non-mycobacterial REMA assay; assay type: cell-based; conditions: Enterobacter cloacae, NCTC10005, read-out: Minimum inhibitory concentration 95%
S. agalactiae NCTC 8181 = assay: Non-mycobacterial REMA assay; assay type: cell-based; conditions: Streptococcus agalactiae, NCTC8181, read-out: Minimum inhibitory concentration 95%
K. pneumoniae NCTC 9633 = assay: Non-mycobacterial REMA assay; assay type: cell-based; conditions: Klebsiella pneumoniae, NCTC9633, read-out: Minimum inhibitory concentration 95%
[2] = system: RAW264.7 murine macrophage cells; assay: cells; assay type: cell-based
[3] = system: AC10 hybrid adult ventricular cardiomyocytes; assay: MTS cytotoxicity assay, cardiomyocytes; assay type: cell-based; conditions: Homo sapiens, AC10 cardiac, 96 h, read-out: MTS percentage survival @ 100 µM
tuberculosis patients = system: tuberculosis patients; set-up: method as in PMID 5535617; conditions: monotherapy; after an 8-week regimen; cited from earlier work
[4] = system: M. bovis BCG containing the pVVdesA3 overexpression plasmid; set-up: method as in PMID 14559907; conditions: M. bovis BCG with pVVdesA3 overexpression plasmid; microplate alamar blue assay; cited from earlier work
Mtb mc^27902 pMV261 [5] = assay: microbe, parasite or virus in culture; assay type: cell-based; conditions: Mycobacterium tuberculosis
[6] = system: HepG2 human liver cancer cell line; assay: MTS cytotoxicity assay, liver cells; assay type: cell-based; conditions: 96 h, read-out: MTS percentage survival @ 100 µM
M. bovis BCG = conditions: microplate alamar blue assay; cited from earlier work
E. faecium NCTC 7171 = assay: Non-mycobacterial REMA assay; assay type: cell-based; conditions: Enterococcus faecium, NCTC7171, read-out: Minimum inhibitory concentration 95%
E. coli K12 = assay: Non-mycobacterial REMA assay; assay type: cell-based; conditions: Escherichia coli, read-out: Minimum inhibitory concentration 95%
Method: (§1) Bacterial minimum inhibition concentrations (MIC) were determined using the Resazurin Microtiter Assay (REMA) method according to Palomino et al.[28] Stock solutions of the tested compounds were prepared in sterile dimethyl sulfoxide (DMSO), then diluted in 7H9OPALPen^1Cyc^10(Kan^25) to obtain a final drug concentration range of 32–0.032 μg/mL. A suspension of the test Mycobacterium was cultured in 7H9OPALPen^1Cyc^10(Kan^25) containing 0.05% v/v Tween^80 for one week at 37 °C, 5% CO2. The bacterial suspension was adjusted to 0.5 McFarland and diluted in 7H9OPALPen^1Cyc^10(Kan^25) 1:25. 100 μL of the inoculum was added to each well of a 96-well microplate together with 100 μL of the compound titration. The plate was incubated at 37 °C, 5% CO2. After 5 days, 10.5 μL 0.1% (w/v) sterile resazurin (solubilised in sterile PBS containing 0.02% v/v Tween^80) was added. Reduced resazurin was detected using fluorescence (Ex/Em 530/590 nm) in a FLUOstar Optima, BMG Labtech. All titre measurements were plotted in SigmaPlot™ and 4-parameter logistic (4PL) model regressions conducted. The relative MIC95 of each curve was calculated and averaged (Table 1). Testing was performed in duplicate with two independent biological repeats. […] Though, for these cultures, dilutions were performed at 1:125 prior to inoculation of the plate and incubation for 4 h (Supplementary Table 3). Known antitubercular agents used in this study were rifampicin (RIF), isoniazid (INH), ISO, EMB, ethionamide (ETH), linezolid (LZD), delamanid (DEL) and moxifloxacin (MOX).

S. enterica NCTC 6754 = assay: Non-mycobacterial REMA assay; assay type: cell-based; conditions: Salmonella enterica, NCTC6754, read-out: Minimum inhibitory concentration 95%
Method: as §1

S. pyogenes NCTC 8198 = assay: Non-mycobacterial REMA assay; assay type: cell-based; conditions: Streptococcus pyogenes, NCTC8198, read-out: Minimum inhibitory concentration 95%
E. faecalis NCTC 775 = assay: Non-mycobacterial REMA assay; assay type: cell-based; conditions: Enterococcus faecalis, NCTC775, read-out: Minimum inhibitory concentration 95%
S. aureus NCTC 2981 = assay: Non-mycobacterial REMA assay; assay type: cell-based; conditions: Staphylococcus aureus, NCTC2981, read-out: Minimum inhibitory concentration 95%
P. aeruginosa DSM 19880 = assay: Non-mycobacterial REMA assay; assay type: cell-based; conditions: Pseudomonas aeruginosa, DSM19880, read-out: Minimum inhibitory concentration 95%
B. cereus NCTC 7464 = assay: Non-mycobacterial REMA assay; assay type: cell-based; conditions: Bacillus cereus, NCTC7464, read-out: Minimum inhibitory concentration 95%
Mtb mc^27902 pMV261 [7] = assay: EtBr accumulation assay; assay type: cell-based, Mycobacterium tuberculosis; conditions: compound at ½ the MIC; absence or presence of glucose; 60 min

With `CC(C)CCOc1ccc(NC(=S)Nc2ccc(OCCC(C)C)cc2)cc1` [ISO, 4,4′-diisoamyloxydiphenylthiourea] as the compound, how does the “TDM and glucose monomycolate levels (TLC)” value (Mtb mc^27902 pMV261 [1]) read?
Its value is “decrease in TDM and glucose monomycolate”.

And the “effect on mycolic acid biosynthesis (FAMEs/MAMEs, TLC/autoradiography)” value (Mtb mc^27902 pMV261 [1])?
Its value is “mycolate depletion was observed in both the cell wall-bound and whole cell analysis”.

What about the “TMM levels (TLC)” value (Mtb mc^27902 pMV261 [1]; at the highest concentrations, […]) of the same compound?
The value was “not observed”.

And the MIC (A. baumannii NCTC 12156)?
Its MIC is > 32 µg/mL.

And the MIC (E. cloacae NCTC 10005)?
Its MIC is > 32 µg/mL.

What about the MIC (S. agalactiae NCTC 8181) of the same compound?
The MIC was > 32 µg/mL.

What about the MIC (K. pneumoniae NCTC 9633) of the same compound?
Its MIC is > 32 µg/mL.

And the viability at 100 µM ([2]; Mus musculus, RAW264.7, 96 h, RAW264.7 macrophage, 100 µM, 96 h, read-out: MTS percentage survival @ 100 µM)?
The viability at 100 µM was 34.5%.

What about the IC50 ([2]; Mus musculus, RAW264.7 macrophages, 0 to 100 µM, read-out: IC50 (cell viability, MTS assay)) of the same compound?
The IC50 was 18.8 µM.

And the “selectivity index (SI)” value ([2]; from RAW264.7 IC50 and Mtb MIC95)?
Its value is 38.

And the viability at 100 µM [3]?
The viability at 100 µM was 38.9 ± 13.9%.

What about the “patients testing sputum negative” value (tuberculosis patients) of the same compound?
The value was 25%.

What about the MIC [4] of the same compound?
The MIC was 6.0 µg/mL (≈ 15 µM).

What about the MIC (Mtb mc^27902 pMV261 [5]; mc^27902 pMV261, REMA, read-out: Mtb MIC95) of the same compound?
The MIC was 0.2 µg/mL.

What about the MIC (Mtb mc^27902 pMV261 [5]; values used for the SI, in brackets, […], read-out: MIC95) of the same compound?
The MIC was 0.2 µg/mL.

And the MIC (Mtb mc^27902 pMV261 [5]; values used for the SI, […], read-out: MIC95)?
Its MIC is 0.49 µM.

What about the viability at 100 µM [6] of the same compound?
Its viability at 100 µM is 95.4 ± 4.3%.

And the MIC (M. bovis BCG)?
Its MIC is 3.0 µg/mL (≈ 7.49 µM).

What about the MIC (E. faecium NCTC 7171) of the same compound?
The MIC was > 32 µg/mL.

And the MIC (E. coli K12)?
The MIC was > 32 µg/mL.

What about the MIC (S. enterica NCTC 6754) of the same compound?
Its MIC is > 32 µg/mL.

What about the MIC (S. pyogenes NCTC 8198) of the same compound?
The MIC was > 32 µg/mL.

And the MIC (E. faecalis NCTC 775)?
Its MIC is > 32 µg/mL.

What about the MIC (S. aureus NCTC 2981) of the same compound?
Its MIC is > 32 µg/mL.

What about the MIC (P. aeruginosa DSM 19880) of the same compound?
Its MIC is > 32 µg/mL.

What about the MIC (B. cereus NCTC 7464) of the same compound?
Its MIC is > 32 µg/mL.

And the “accumulation of EtBr” value (Mtb mc^27902 pMV261 [7])?
Its value is “increased accumulation of EtBr”.
